Literature values as cited in patent US20110257192A1, “COMPOUND FOR TREATMENT OF RESPIRATORY CONDITION OR DISEASE” (BIOTA SCIENTIFIC MANAGEMENT PTY LTD, priority 2010, published 2011).

Settings: administered orally

SMILES: Cc1cc(CCCOc2c(C)cc(-c3noc(C(F)(F)F)n3)cc2C)on1 [pleconaril]
- effect on asthma exacerbation: did not have an effect on asthma exacerbation
